According to paper PMC4122966, “Novel VCP modulators mitigate major pathologies of rd10, a mouse model of retinitis pigmentosa” (Scientific Reports, 2014):

Columns and labels:
HeLa cells [1] = test: relative ATP amounts per cell in tunicamycin-treated cells; type: cell-based; settings: Tm 0.5 μg/ml, 24 hours, ATP 0.1 and 1 mM
Experimental: (§1) Figure 4 KUSs and ATP each prevented a decrease of ATP levels and ameliorated ER stress in tunicamycin-treated cells. (a) Immunocytochemical analyses of HeLa cells by an anti-laminin γ1 antibody. HeLa cells were treated with 0.5 μg/ml of tunicamycin (Tm) for 5 hours in the presence of KUSs (50 μM), ATP (0.1, 0.3, and 1 mM), methylpyruvate (MePyr) (3 and 10 mM), or vehicle alone (DMSO). Then, cells were fixed and subjected to immunocytochemical analyses. Normally growing HeLa cells were also analyzed (Control). Scale bar, 10 μm. (b) Measurements of the relative amounts of ATP per cell. HeLa cells were treated with tunicamycin (Tm, 0.5 μg/ml) for 24 hours in the presence of KUSs (50 μM) or ATP (0.1 and 1 mM), or vehicle alone (DMSO), and were harvested. Then, ATP amounts from 1.5 × 10^5 cells were measured. * P < 0.05, ** P < 0.01. Error bars indicate SD. (c) Western blot analyses on CHOP. HeLa cells were treated with 0.5 μg/ml of tunicamycin for 5 hours in the presence of KUSs (50 μM), ATP (0.1, 0.3, and 1 mM), methylpyruvate (MePyr) (3 and 10 mM), or vehicle alone (-). Then, cells were harvested and subjected to western blot analyses. Actin served as a loading control. Complete scans of the different blots are presented in Supplementary Fig. 9.

HeLa cells [2] = test: immunocytochemistry of laminin γ1 aggregation in tunicamycin-treated cells; type: cell-based
Experimental: as §1

[3] = tested on: tunicamycin-treated HeLa cells; test: western blot of ER stress markers and phospho-Akt in tunicamycin-treated cells; type: cell-based; settings: Tm 0.5 μg/ml, 5 hours, 0.1 mM ATP
Experimental: Figure 2 Prevention of cell death and ER stress by KUSs. (a) Photographs of HeLa cells, cultured with DMSO (DMSO) or KUSs (KUS94, KUS121, and KUS187, 20 μM each) for 41 hours in low glucose (0.2 g/l) medium. Scale bar, 100 μm. (b–e) WST (water-soluble tetrazolium salts) values reflecting relative live cell numbers are shown, as optical density (OD) at 450 nm. Error bars indicate SD. (b) WST values of HeLa cells, cultured in low glucose (0.2 g/l) with DMSO (control) or KUSs (50 μM for KUS121; 20 μM for KUS69, KUS94, and KUS187, n = 3) for 41 hours. (c) Cell viability, indicated by WST values of HeLa cells, cultured with tunicamycin (Tm) (0.2 μg/ml) for 41 hours with KUSs (20 μM each, n = 3). (d) WST values of HEK293 cells, cultured under serum-free conditions for 65 hours with DMSO (control) or KUSs (20 μM each, n = 3). *** P < 0.001, vs. DMSO control (Dunnett's test). (e) WST values of HeLa cells, cultured in low glucose (0.2 g/l) medium with different concentrations of KUS121 (5, 10, 20, and 50 μM, n = 3) for 41 hours. ** P = 0.008, *** P < 0.001, vs. DMSO control (Dunnett's test). […]
Figure 4 KUSs and ATP each prevented a decrease of ATP levels and ameliorated ER stress in tunicamycin-treated cells. […] Normally growing HeLa cells were also analyzed (Control). […] Then, ATP amounts from 1.5 × 10^5 cells were measured. * P < 0.05, ** P < 0.01. […]

HeLa cells [4] = test: cell death-inducing activity; type: cell-based; settings: 50 μM, 24 hours
Excerpt: (§2) Figure 1 Structures and characterization of KUSs, novel VCP modulators. (a) Structures and IC50 values of KUS11, KUS31, KUS69, KUS94, KUS121, and KUS187. […] (b) ATPase activity assays of recombinant human […], comparing KUSs and DBeQ. (c) Immunoblot analysis of ubiquitinated proteins, an ER stress marker (CHOP), and an autophagy indicator (LC3), comparing KUSs and DBeQ. As a control, MG132, a proteasome inhibitor, was used for the analysis. Actin served as a loading control. Complete scans of the different blots are presented in Supplementary Fig. 7. (d) Comparison of KUSs and DBeQ for cell death-inducing activities. HeLa cells were treated with 50 μM DBeQ or KUSs for 24 hours. […]

cellular VCP functions = test: immunoblot of ubiquitinated proteins, CHOP (ER stress) and LC3 (autophagy) in cultured cells; type: cell-based
Excerpt: as §2

VCP = tested on: VCP; design: method as in PMID 21383145; settings: reported value; read-out: in vitro IC50 (half maximal inhibitory concentration) for VCP; cited from earlier work

SMILES | decrease of ATP levels in tunicamycin-treated cells (HeLa cells [1]) | aggregation of laminin γ1 (HeLa cells [2]; HeLa, Tm 0.5 μg/ml, 5 hours, 0.1 mM ATP) | aggregation of laminin γ1 (HeLa cells [2]; HeLa, Tm 0.5 μg/ml, 5 hours, 1 mM ATP) | aggregation of laminin γ1 (HeLa cells [2]; tunicamycin-treated HeLa cells, ATP at 0.3 to 1 mM) | induction of ER stress (CHOP induction) [3] | induction of cell death (HeLa cells [4]) | induction of accumulation of ubiquitinated proteins, ER stress (CHOP), autophagy (LC3) (cellular VCP functions) | IC50 (VCP)
Nc1ncnc2c1ncn2[C@@H]1O[C@H](COP(=O)(O)OP(=O)(O)OP(=O)(O)O)[C@@H](O)[C@H]1O [ATP] | prevented decreases of ATP levels | ineffective in preventing the aggregation of laminin γ1 | clearly prevented the aggregation of laminin γ1 | prevented the aggregation of laminin γ1 | dampen the induction of ER stress | – | – | –
c1ccc(CNc2nc(NCc3ccccc3)c3ccccc3n2)cc1 [DBeQ, reference compound] | – | – | – | – | – | eventually cell death | induced accumulation of ubiquitinated proteins, ER stress, autophagy | 1000 nM
